# Entries after “also recorded” stand apart in the source; their conditions may differ.
# Experiments:
# [1] = tested on: Arabidopsis thaliana plants; test: SOA1 phenotypic analysis of herbicide-treated Arabidopsis plants; format: in vivo; conditions: for characteristic symptoms (morphological phenotype): in words; for Symptom Class: Arabidopsis sprayed with herbicide, phenotypes of the classes pictured in FIG. 12; for leafCurling (Dev.) / leafTwisting (Dev.) / leafWidth (Dev.) / matureLeafAnthocyanins (Dev.) / matureLeafChlorosis (Dev.) / matureLeafNecrosis (Dev.) / newLeafAnthocyanins (Dev.) / newLeafChlorosis (Dev.) / newLeafNecrosis (Dev.) / pointedLeaves (Dev.): numeric value standardized to mock treated plants; for tMic (Dev.): score for time required to exhibit full range of symptoms at the MIC
# Arabidopsis thaliana [2] = test: MOA1 gene expression profiling (22,000 gene array) of treated Arabidopsis; format: in vivo; conditions: for gene expression perturbations compared to the other treatments: MOA1, 1 hr; for No. of Lethal Genes Altered: regulated genes identified as essential for plant growth and development (internal database)
# Magnaporthe grisea = format: cell-based
# Arabidopsis thaliana [3] = test: MOA1 biochemical (metabolite) profiling by LC-MS and GC-MS of treated Arabidopsis; conditions: after one hour
# [4] = tested on: Saccharomyces cerevisiae wild type strain BY4743; test: AF1 metabolite analysis (GC-MS, LC-MS) of yeast cells treated with antifungal drugs; format: cell-based
# Arabidopsis thaliana [5] = test: MOA1 phenotypic profiling of Arabidopsis sprayed with unknown and commercial herbicides; format: in vivo; conditions: in words
# PSI, PROTOX = test: PSI / PROTOX inhibition (unpublished data)
smiles,measurement,setting,value
CCNc1nc(Cl)nc(NC(C)C)n1 [Atrazine],characteristic symptoms (morphological phenotype),[1],rapid and widespread leaf necrosis
COC(=O)NS(=O)(=O)c1ccc(N)cc1 [Asulam],gene expression perturbations compared to the other treatments,Arabidopsis thaliana [2],fewest gene expression perturbations
same,No. of Lethal Genes Altered,Arabidopsis thaliana [2],5
CS(=O)(=O)c1cc(C(F)(F)F)ccc1C(=O)c1cnoc1C1CC1 [Isoxaflutole],No. of Lethal Genes Altered,Arabidopsis thaliana [2],15
same,M. grisea growth in minimal media,Magnaporthe grisea; concentration insufficient to inhibit growth,unaffected
same,M. grisea growth in minimal plus tyrosine (sole nitrogen source) media,Magnaporthe grisea; concentration insufficient to inhibit growth (sub-inhibitory),inhibited
same,tyrosine and phenylalanine relative to the control,Arabidopsis thaliana [3],up-regulated; also recorded: began to accumulate
"O=C(O)COc1ccc(Cl)cc1Cl [2,4-D]",Symptom Class,[1],5
same,leafCurling (Dev.),[1],1
same,leafTwisting (Dev.),[1],2
same,leafWidth (Dev.),[1],−1
same,matureLeafAnthocyanins (Dev.),[1],1
same,matureLeafChlorosis (Dev.),[1],2
same,matureLeafNecrosis (Dev.),[1],0
same,newLeafAnthocyanins (Dev.),[1],0
same,newLeafChlorosis (Dev.),[1],1
same,newLeafNecrosis (Dev.),[1],0
same,pointedLeaves (Dev.),[1],0
same,tMic (Dev.),[1],2
CC[C@@H]([C@H](C)O)n1ncn(-c2ccc(N3CCN(c4ccc(OC[C@@H]5CO[C@@](Cn6cncn6)(c6ccc(F)cc6F)C5)cc4)CC3)cc2)c1=O [Posaconazoie],Fold Change,"[4]; metabolite luteolin, platform LC",0
CN(C)C(=O)Nc1ccc(Cl)c(Cl)c1 [Diuron],Symptom Class,[1],7
same,characteristic symptoms (morphological phenotype),[1],rapid and widespread leaf necrosis
same,leafCurling (Dev.),[1],1
same,leafTwisting (Dev.),[1],0
same,leafWidth (Dev.),[1],−2
same,matureLeafAnthocyanins (Dev.),[1],0
same,matureLeafChlorosis (Dev.),[1],2
same,matureLeafNecrosis (Dev.),[1],4
same,newLeafAnthocyanins (Dev.),[1],0
same,newLeafChlorosis (Dev.),[1],2
same,newLeafNecrosis (Dev.),[1],4
same,pointedLeaves (Dev.),[1],1
same,tMic (Dev.),[1],1
O=C(O)CNCP(=O)(O)O [Glyphosate],Symptom Class,[1],4
same,characteristic symptoms (morphological phenotype),[1],anthocyanin accumulation in the older leaves accompanied by chlorosis of the newly emerging leaves
same,leafCurling (Dev.),[1],0
same,leafTwisting (Dev.),[1],0
same,leafWidth (Dev.),[1],0
same,matureLeafAnthocyanins (Dev.),[1],3
same,matureLeafChlorosis (Dev.),[1],1
same,matureLeafNecrosis (Dev.),[1],3
same,newLeafAnthocyanins (Dev.),[1],1
same,newLeafChlorosis (Dev.),[1],2
same,newLeafNecrosis (Dev.),[1],0
same,pointedLeaves (Dev.),[1],1
same,tMic (Dev.),[1],2
same,"M. grisea growth with nitrate, nitrite, or glutamate as the sole nitrogen source",Magnaporthe grisea,inhibited growth
same,"Growth of M. grisea with ammonium or glutamine as nitrogen source, Tier 4",Magnaporthe grisea; 250 μg/ml,Little growth defect
same,M. grisea growth results for Tiers 3 and 4,Magnaporthe grisea; 250 μg/ml,nearly identical as compared to Unknown 4
same,"M. grisea growth inhibition, effect of aromatic amino acids in the media",Magnaporthe grisea; 1.0 mg/ml,remediated by inclusion of aromatic amino acids
same,tyrosine (downstream metabolite) relative to the control,Arabidopsis thaliana [3],decreased
Nc1nc[nH]n1 [Amitrole],phenotype / hierarchical cluster analysis of the eleven phenotypic characteristics,Arabidopsis thaliana [5],exhibited chlorosis and not true bleaching
same,characteristic symptoms (morphological phenotype),[1],leaf bleaching and leaf enlargement
CCSC(=O)N(CC(C)C)CC(C)C [Butylate],phenotype / hierarchical cluster analysis of the eleven phenotypic characteristics,Arabidopsis thaliana [5],neither showed a strong herbicidal phenotype
OC(Cn1cncn1)(Cn1cncn1)c1ccc(F)cc1F [Fluconazole],Fold Change: abscisic acid,[4]; LC,0
same,Fold Change: adenosine,[4]; LC,0
c1cc[n+]2c(c1)-c1cccc[n+]1CC2 [Diquat],Symptom Class,[1],7
same,characteristic symptoms (morphological phenotype),[1],rapid and widespread leaf necrosis
same,leafCurling (Dev.),[1],2
same,leafTwisting (Dev.),[1],0
same,leafWidth (Dev.),[1],−2
same,matureLeafAnthocyanins (Dev.),[1],0
same,matureLeafChlorosis (Dev.),[1],1
same,matureLeafNecrosis (Dev.),[1],4
same,newLeafAnthocyanins (Dev.),[1],0
same,newLeafChlorosis (Dev.),[1],1
same,newLeafNecrosis (Dev.),[1],4
same,pointedLeaves (Dev.),[1],1
same,tMic (Dev.),[1],2
COc1nc(C)nc(NC(=O)NS(=O)(=O)c2ccccc2Cl)n1 [Chlorsulfuron],characteristic symptoms (morphological phenotype),[1],anthocyanin accumulation in the older leaves accompanied by chlorosis of the newly emerging leaves
same,No. of Lethal Genes Altered,Arabidopsis thaliana [2],8
COC(=O)c1cc(Oc2ccc(Cl)cc2Cl)ccc1[N+](=O)[O-] [Bifenox],characteristic symptoms (morphological phenotype),[1],Necrotic leaf flecks
CC(C)OC(=O)Nc1cccc(Cl)c1 [Chloropropham],phenotype / hierarchical cluster analysis of the eleven phenotypic characteristics,Arabidopsis thaliana [5],neither showed a strong herbicidal phenotype
C[n+]1ccc(-c2cc[n+](C)cc2)cc1 [Paraquat],Symptom Class,[1],7
same,characteristic symptoms (morphological phenotype),[1],rapid and widespread leaf necrosis
CSc1nnc(C(C)(C)C)c(=O)n1N [Metribuzin],characteristic symptoms (morphological phenotype),[1],rapid and widespread leaf necrosis
CP(=O)(O)CCC(N)C(=O)O (centres unmarked) [Glufosinate],Symptom Class,[1],3
same,characteristic symptoms (morphological phenotype),[1],Chlorosis and leaf curling
same,leafCurling (Dev.),[1],2
same,leafTwisting (Dev.),[1],1
same,leafWidth (Dev.),[1],−2
same,matureLeafAnthocyanins (Dev.),[1],0
same,matureLeafChlorosis (Dev.),[1],3
same,matureLeafNecrosis (Dev.),[1],0
same,newLeafAnthocyanins (Dev.),[1],0
same,newLeafChlorosis (Dev.),[1],3
same,newLeafNecrosis (Dev.),[1],0
same,pointedLeaves (Dev.),[1],1
same,tMic (Dev.),[1],1
same,No. of Lethal Genes Altered,Arabidopsis thaliana [2],10
CCc1cnc(C2=NC(C)(C(C)C)C(=O)N2)c(C(=O)O)c1 (centres unmarked) [Imazethapyr],characteristic symptoms (morphological phenotype),[1],anthocyanin accumulation in the older leaves accompanied by chlorosis of the newly emerging leaves
O=C(O)c1ccccc1C(=O)Nc1cccc2ccccc12 [Naptalam],gene expression perturbations compared to the other treatments,Arabidopsis thaliana [2],fewest gene expression perturbations
same,No. of Lethal Genes Altered,Arabidopsis thaliana [2],3
CC[C@@H]([C@H](C)O)n1ncn(-c2ccc(N3CCN(c4ccc(OC[C@@H]5CO[C@@](Cn6cncn6)(c6ccc(F)cc6F)C5)cc4)CC3)cc2)c1=O [Posaconazote],"Fold Change, porphobilinogen","[4]; detected metabolite, platform nLC, p-Value 1",0
CC[C@@H]([C@H](C)O)n1ncn(-c2ccc(N3CCN(c4ccc(OC[C@@H]5CO[C@@](Cn6cncn6)(c6ccc(F)cc6F)C5)cc4)CC3)cc2)c1=O [Posaconazole],Fold Change,"[4]; metabolite anthranilic acid, platform nLC",0
same,Fold Change,"[4]; metabolite anthranilic acid, platform pLC",0
same,Fold Change,"[4]; metabolite biotin, platform LC",0
CC(C)C1(C)N=C(c2ncccc2C(=O)O)NC1=O (centres unmarked) [Imazapyr],characteristic symptoms (morphological phenotype),[1],anthocyanin accumulation in the older leaves accompanied by chlorosis of the newly emerging leaves
CCc1cccc(C)c1N(C(=O)CCl)C(C)COC (centres unmarked) [Metolachlor],PSI or PROTOX inhibitor,"PSI, PROTOX",neither a PSI nor a PROTOX inhibitor
O=C(O)c1cc(Oc2ccc(C(F)(F)F)cc2Cl)ccc1[N+](=O)[O-] [Acifluorfen],characteristic symptoms (morphological phenotype),[1],Necrotic leaf flecks
CC(C)N1C(=O)c2ccccc2NS1(=O)=O [Bentazon],characteristic symptoms (morphological phenotype),[1],rapid and widespread leaf necrosis
